Experimental data as given in PubChem BioAssay (NCI).
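Exposure lasted 48 hours, with cells grown in 96-well plates and compounds tested at five concentrations. Abbreviation: GI50, concentration required for 50% inhibition of growth. The concentration for full growth arrest is given as TGI.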

Assays:
Experiment in all cases: DTP human tumour cell line panel, 48 h
ACHN renal = tested on: ACHN renal
BT-549 breast = tested on: BT-549 breast
K-562 leukemia = tested on: K-562 leukemia
MDA-MB-435 = tested on: MDA-MB-435
MOLT-4 leukemia = tested on: MOLT-4 leukemia
NCI-H522 lung = tested on: NCI-H522 lung
NCI/ADR-RES ovarian = tested on: NCI/ADR-RES ovarian
OVCAR-8 ovarian = tested on: OVCAR-8 ovarian
SF-268 CNS = tested on: SF-268 CNS
SF-539 CNS = tested on: SF-539 CNS

| Compound | GI50 (ACHN renal) | TGI (ACHN renal) | GI50 (BT-549 breast) | TGI (BT-549 breast) | GI50 (K-562 leukemia) | TGI (K-562 leukemia) | GI50 (MDA-MB-435) | TGI (MDA-MB-435) | GI50 (MOLT-4 leukemia) | TGI (MOLT-4 leukemia) | GI50 (NCI-H522 lung) | TGI (NCI-H522 lung) | GI50 (NCI/ADR-RES ovarian) | TGI (NCI/ADR-RES ovarian) | GI50 (OVCAR-8 ovarian) | TGI (OVCAR-8 ovarian) | GI50 (SF-268 CNS) | TGI (SF-268 CNS) | GI50 (SF-539 CNS) | TGI (SF-539 CNS) |
| --- | --- | --- | --- | --- | --- | --- | --- | --- | --- | --- | --- | --- | --- | --- | --- | --- | --- | --- | --- | --- |
| CCn1nc(C#Cc2c(C)ccc3c(Nc4ccc(Cl)cc4)nccc23)c2c(N)ncnc21 | 5.31 µM | > 100 µM | 5.27 µM | > 100 µM | 2.18 µM | > 100 µM | 1.08 µM | 4.57 µM | 4.32 µM | > 100 µM | 2.39 µM | 86.9 µM | 3.1 µM | 10.7 µM | 4.35 µM | > 100 µM | 5.36 µM | > 100 µM | – | – |
| NC1=Nc2cc(OCCCCN3Cc4ccccc4C3)c(OCC3CC3)cc2C12CCCC2 | 1.71 µM | 3.24 µM | 1.57 µM | 3.33 µM | 0.398 µM | 1.73 µM | 1.59 µM | 2.99 µM | 1.88 µM | 5.04 µM | 1.86 µM | 3.84 µM | 1.73 µM | 3.41 µM | 1.8 µM | 4.02 µM | 1.78 µM | 6.42 µM | 1.53 µM | 2.91 µM |
| CS(=O)c1cc(=O)c2ccccc2s1 (configuration not stated) | – | 3.66 µM | – | 27.6 µM | – | 7.57 µM | – | 19 µM | – | 6.36 µM | – | 3.07 µM | – | 34.1 µM | – | 8.09 µM | – | 24.5 µM | – | 18.4 µM |
| O=c1[nH]c2c(ccc3cnccc32)c2c1CCC2 | 0.279 µM | > 100 µM | 0.172 µM | 0.532 µM | 0.657 µM | > 100 µM | 0.307 µM | 1.38 µM | 0.386 µM | > 100 µM | 0.277 µM | – | 0.426 µM | > 100 µM | 0.331 µM | > 100 µM | 0.333 µM | 37.3 µM | 0.219 µM | 0.585 µM |
| COc1cnc2c(c1)C(=O)c1c-2n(CCCN2CCNCC2)c(=O)c2cc(F)ccc12 | 0.0553 µM | 0.554 µM | 1.25 µM | 4.32 µM | 0.148 µM | 1.44 µM | 0.578 µM | 2.01 µM | 0.0275 µM | 0.164 µM | 0.118 µM | 1.35 µM | 0.865 µM | 4.43 µM | 0.126 µM | 1.25 µM | 0.282 µM | 1.86 µM | 0.532 µM | 1.83 µM |
| COc1ccc(-c2cc(-c3ccc(Cl)cc3)c(C#N)c(=O)n2CCCCCC(=O)Nc2ccccc2N)cc1 | 4.18 µM | > 100 µM | 4.49 µM | 43.7 µM | 3.37 µM | > 100 µM | 3.69 µM | 18.7 µM | 5.16 µM | > 100 µM | 4.43 µM | > 100 µM | 3.99 µM | > 100 µM | 4.31 µM | > 100 µM | 14.9 µM | > 100 µM | 9.29 µM | > 100 µM |
| CC(C)OC(=O)OCOP(=O)(OCOC(=O)OC(C)C)C1CCCN(O)C1=O (configuration not stated) | 0.888 µM | > 100 µM | 0.468 µM | 11.7 µM | 0.81 µM | > 100 µM | 5.29 µM | > 100 µM | 1.34 µM | > 100 µM | 0.768 µM | > 100 µM | 2.6 µM | > 100 µM | 0.619 µM | > 100 µM | 3.07 µM | > 100 µM | 5.79 µM | > 100 µM |
